Laboratory results taken from paper PMC3079779 (Toxicology and applied pharmacology, 2011).
“Also recorded” adds a separate entry of the source. Read-outs that look alike come from different tables or passages of the source.

Experiments:
[1] = molecular target: human KV1.3 voltage gated K+ channel (Homo sapiens, UniProt P22001); assay: KV1.3 thallium influx assay in KV1.3 stably transfected CHO DUKX cells; conditions: for KV 1.3 IC50 / KV 1.3 Efficacy (inhibition of thallium influx as a % of positive control): thallium influx in KV1.3 cells; for KV 1.3 IC50: mean ± SD from two to three experiments; for Selectivity Fold (hERG over KV1.3): potency difference KV1.3 IC50 / hERG IC50, thallium influx assays; for KV 1.3 Efficacy (inhibition of thallium influx as a % of positive control): relative to 1 μM psoralen
hERG channel [2] = molecular target: T1, hERG channel (Homo sapiens, UniProt Q12809)
hERG channel [3] = molecular target: T1, hERG channel; assay: Automated whole cell patch clamp, hERG tail current in hERG CHO-K1 cells
hERG channel [4] = molecular target: T1, hERG channel; assay: FluxOR thallium influx assay in hERG transduced U-2 OS cells; conditions: for Confirmation Efficacy (inhibition of thallium influx as a % of positive control): confirmation study, hERG transduced cells, mean ± SD of three experiments; for IC50 in the thallium influx assay (QAC series follow-up): quaternary ammonium compound series and digitonin control, hERG cells
wild type U-2 OS cells = assay: FluxOR thallium influx assay in wild type; assay type: cell-based, human; conditions: non-hERG transduced cells
hERG channel [5] = molecular target: T1, hERG channel; remark: listed apart in the source
in vitro = assay type: cell-based, human; conditions: human, hERG transduced U-2 OS cells
[6] = test system: hERG transduced U-2 OS cells; assay: in vitro; assay type: cell-based, human; conditions: for IC50: read-out: Cytotoxicity IC50 (cell viability, intracellular ATP content), up to 92 μM
KV1.3 versus hERG [7] = molecular target: T2, KV1.3 versus hERG (Homo sapiens, UniProt P22001); assay: KV1.3 thallium influx assay in KV1.3 stably transfected CHO DUKX cells; conditions: human
KV1.3 versus hERG [8] = molecular target: T2, KV1.3 versus hERG; assay: in vitro
[9] = automated whole cell patch clamp, hERG tail current, hERG CHO-K1 cells, room temperature
[10] = 30-minute treatment, hERG transduced U-2 OS cells
[11] = read-out: Patch clamp IC50, automated whole cell patch clamp, hERG tail current, hERG CHO-K1 cells, room temperature

T1 sequence (Q12809 whole entry): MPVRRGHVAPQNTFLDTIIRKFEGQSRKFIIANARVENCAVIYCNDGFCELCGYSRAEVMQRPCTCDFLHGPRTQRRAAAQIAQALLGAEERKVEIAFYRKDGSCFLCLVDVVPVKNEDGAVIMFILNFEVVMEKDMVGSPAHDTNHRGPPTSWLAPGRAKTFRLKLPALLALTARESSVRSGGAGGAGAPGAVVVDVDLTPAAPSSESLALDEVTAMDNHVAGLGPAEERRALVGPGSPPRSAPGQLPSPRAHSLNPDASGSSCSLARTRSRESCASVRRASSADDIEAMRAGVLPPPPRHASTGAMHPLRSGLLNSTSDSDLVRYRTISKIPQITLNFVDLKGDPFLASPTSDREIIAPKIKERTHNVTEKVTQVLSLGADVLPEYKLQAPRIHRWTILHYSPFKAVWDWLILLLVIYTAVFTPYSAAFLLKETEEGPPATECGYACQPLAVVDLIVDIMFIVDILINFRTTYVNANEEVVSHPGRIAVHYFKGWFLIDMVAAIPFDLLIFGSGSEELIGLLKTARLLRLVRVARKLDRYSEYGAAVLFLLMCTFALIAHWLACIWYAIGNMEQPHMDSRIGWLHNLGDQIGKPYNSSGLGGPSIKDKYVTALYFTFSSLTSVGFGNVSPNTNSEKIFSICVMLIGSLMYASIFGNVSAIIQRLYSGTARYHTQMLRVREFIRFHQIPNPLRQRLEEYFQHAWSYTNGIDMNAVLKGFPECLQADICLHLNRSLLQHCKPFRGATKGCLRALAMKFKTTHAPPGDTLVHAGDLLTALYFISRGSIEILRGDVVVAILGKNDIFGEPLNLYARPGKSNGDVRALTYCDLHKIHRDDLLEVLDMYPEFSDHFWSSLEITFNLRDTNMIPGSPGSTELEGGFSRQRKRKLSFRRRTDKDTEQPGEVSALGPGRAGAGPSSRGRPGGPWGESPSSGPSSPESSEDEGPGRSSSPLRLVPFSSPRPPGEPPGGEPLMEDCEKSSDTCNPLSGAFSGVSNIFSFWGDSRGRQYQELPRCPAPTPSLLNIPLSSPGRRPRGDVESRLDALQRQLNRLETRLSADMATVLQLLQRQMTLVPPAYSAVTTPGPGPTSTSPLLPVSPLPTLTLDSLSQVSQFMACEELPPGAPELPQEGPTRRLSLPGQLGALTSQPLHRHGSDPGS
T2 sequence (P22001 whole entry): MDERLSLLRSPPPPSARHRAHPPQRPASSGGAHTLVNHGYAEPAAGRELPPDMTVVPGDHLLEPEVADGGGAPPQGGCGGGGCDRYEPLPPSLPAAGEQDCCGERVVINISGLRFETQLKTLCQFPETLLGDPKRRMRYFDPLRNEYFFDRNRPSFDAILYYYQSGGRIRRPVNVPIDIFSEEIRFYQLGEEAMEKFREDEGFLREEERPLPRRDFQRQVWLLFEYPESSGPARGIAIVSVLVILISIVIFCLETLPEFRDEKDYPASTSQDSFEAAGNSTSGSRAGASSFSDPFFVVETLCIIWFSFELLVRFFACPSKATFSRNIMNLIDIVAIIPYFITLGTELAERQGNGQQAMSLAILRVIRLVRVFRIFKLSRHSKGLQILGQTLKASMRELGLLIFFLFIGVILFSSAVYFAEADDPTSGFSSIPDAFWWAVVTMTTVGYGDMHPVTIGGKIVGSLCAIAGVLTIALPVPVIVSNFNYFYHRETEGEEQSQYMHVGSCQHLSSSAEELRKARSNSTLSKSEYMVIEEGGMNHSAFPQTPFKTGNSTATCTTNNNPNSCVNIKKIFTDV
Sequence of human KV1.3 voltage gated K+ channel (P22001 whole entry): as above

## N=C(Nc1ccccc1)Nc1ccccc1 [1,3-diphenylguanidine]
[1]
  KV 1.3 IC50: Inactive

## Nc1ccc2cc3ccccc3cc2c1 [2-aminoanthracene]
hERG channel [2]; human
  qHTS (two runs) Efficacy (inhibition of thallium influx as a % of positive control): 61 ± 3%
hERG channel [3]
  IC50: > 100 µM
hERG channel [4]
  Confirmation Efficacy (inhibition of thallium influx as a % of positive control): 67 ± 19%
Wild type U-2 OS cells
  Inhibition of thallium influx in parental (wild type) cells: inhibitory effect

## CCCCCCc1ccc(-c2ccc(C#N)cc2)cc1 [4-N-hexyl-4′-cyanobiphenyl, 4′-N-hexyl-4-biphenylcarbonitrile]
hERG channel [2]
  Confirmation IC50 (thallium influx, hERG): Inactive
  IC50: 8.2 ± 2.6 µM

## O=C([O-])c1c(Cl)c(Cl)c(Cl)c(Cl)c1-c1c2cc(Br)c(=O)c(Br)c-2oc2c(Br)c([O-])c(Br)cc12.[Na+].[Na+] [D&C red dye 27]
hERG channel [2]
  Confirmation Efficacy (inhibition of thallium influx as a % of positive control): 173 ± 41%
Wild type U-2 OS cells
  Inhibition of thallium influx in parental (wild type) cells: inhibitory effect
hERG channel [5]
  IC50: > 100 µM

## C[N+](C)(C)Cc1ccccc1 [benzyltrimethylammonium chloride]
hERG channel [3]; [9]
  Patch clamp IC50: inactive
hERG channel [4]
  IC50 in the thallium influx assay (QAC series follow-up): inactive

## C[N+](C)(C)CCCCCCCCCC[N+](C)(C)C [decamethonium dibromide]
hERG channel [3]; [9]
  Patch clamp IC50: inactive
hERG channel [4]
  IC50 in the thallium influx assay (QAC series follow-up): inactive

## C[C@@H]1CC[C@@]2(OC1)O[C@H]1[C@@H](O)[C@H]3[C@@H]4CC[C@H]5C[C@@H](O[C@@H]6O[C@H](CO)[C@H](O[C@@H]7O[C@H](CO)[C@@H](O)[C@H](O[C@@H]8OC[C@@H](O)[C@H](O)[C@H]8O)[C@H]7O[C@@H]7O[C@H](CO)[C@H](O)[C@H](O[C@@H]8O[C@H](CO)[C@@H](O)[C@H](O)[C@H]8O)[C@H]7O)[C@H](O)[C@H]6O)[C@H](O)C[C@]5(C)[C@H]4CC[C@]3(C)[C@H]1[C@@H]2C [digitonin, reference compound]
hERG channel [3]; at 1 μM (the highest noncytotoxic concentration)
  Inhibitory effect on hERG channel activity in the patch clamp experiment: no inhibitory effect

## CCCCCCCCCCCC[N+](C)(C)CCOc1ccccc1 [domiphen bromide]
hERG channel [3]
  IC50: 1.5 µM
In vitro
  IC50 at 30 min: 65 µM
[6]; [10]
  Maximum inhibition of cell viability: 33%
[1]
  IC50: 5.2 ± 0.6 µM
  Selectivity Fold (hERG over KV1.3): no selectivity
  KV 1.3 Efficacy (inhibition of thallium influx as a % of positive control): 102 ± 22%
KV1.3 versus hERG [7]
  selectivity ratio at 2 min: 1.2

## Clc1ccc(COC(Cn2ccnc2)c2ccc(Cl)cc2Cl)cc1 (stereo not drawn) [econazole nitrate, reference compound]
[1]
  IC50: 30 ± 2 µM
  KV 1.3 Efficacy (inhibition of thallium influx as a % of positive control): 104 ± 10%

## CN(C)c1ccc(C(=C2C=CC(=[N+](C)C)C=C2)c2ccccc2)cc1.CN(C)c1ccc(C(=C2C=CC(=[N+](C)C)C=C2)c2ccccc2)cc1.O=C(O)C(=O)O.O=C([O-])C(=O)O.O=C([O-])C(=O)O [malachite green oxalate]
hERG channel [2]
  qHTS (two runs) Efficacy (inhibition of thallium influx as a % of positive control): 97 ± 3%
hERG channel [3]; [11]
  IC50: 1.9 µM
hERG channel [4]
  Confirmation Efficacy (inhibition of thallium influx as a % of positive control): 108 ± 7%
[6]
  Maximum inhibition of cell viability: 72%
[6]; [10]
  IC50: 31 µM
[1]
  Selectivity Fold (hERG over KV1.3): 6.5 fold
  KV 1.3 IC50: either IC50 values >30 μM or were inactive
  KV 1.3 Efficacy (inhibition of thallium influx as a % of positive control): 89%

## Clc1ccc(C(c2ccccc2Cl)C(Cl)(Cl)Cl)cc1 (stereo not drawn) [o,p′-DDT, 1,1,1-trichloro-2-(2-chlorophenyl)-2-(4-chlorophenyl)ethane]
hERG channel [2]; human
  qHTS (two runs) Efficacy (inhibition of thallium influx as a % of positive control): 56 ± 2%
hERG channel [3]
  IC50: 2.6 µM
hERG channel [4]
  Confirmation Efficacy (inhibition of thallium influx as a % of positive control): 58 ± 8%
[1]
  IC50: 35 µM
  Selectivity Fold (hERG over KV1.3): no selectivity
  KV 1.3 IC50: either IC50 values >30 μM or were inactive
  KV 1.3 Efficacy (inhibition of thallium influx as a % of positive control): 61%
KV1.3 versus hERG [8]
  selectivity ratio: 1.6

## C=C[C@H]1C[N@@]2CC[C@H]1C[C@@H]2[C@@H](O)c1ccnc2ccc(OC)cc12 [quinidine, reference compound]
[1]
  KV 1.3 IC50: either IC50 values >30 μM or were inactive; also recorded: Inactive

## COC(=O)[C@H]1[C@H]2C[C@@H]3c4[nH]c5cc(OC)ccc5c4CCN3C[C@H]2C[C@@H](OC(=O)c2cc(OC)c(OC)c(OC)c2)[C@@H]1OC [reserpine, reference compound]
hERG channel [3]
  IC50: 1.9 µM
hERG channel [4]; Confirmation IC50 (thallium influx, hERG)
  IC50: 4.9 ± 1.7 µM
hERG channel [4]; qHTS (two runs) IC50
  IC50: 7.5 ± 3.5 µM
[1]
  IC50: 58 ± 18 µM
  KV 1.3 IC50: either IC50 values >30 μM or were inactive
  KV 1.3 Efficacy (inhibition of thallium influx as a % of positive control): 78 ± 7%
KV1.3 versus hERG [7]
  selectivity ratio at 2 min: 11.8

## CCCCCCCC[N+](CCCCCCCC)(CCCCCCCC)CCCCCCCC.[Br-] [tetra-n-octylammonium bromide]
hERG channel [2]
  qHTS (two runs) Efficacy (inhibition of thallium influx as a % of positive control): 102 ± 4%
hERG channel [3]; read-out: IC50 in the patch clamp assay, as stated in abstract
  IC50: 0.08 µM
hERG channel [3]; [11]
  IC50: 0.082 µM
hERG channel [4]
  Confirmation Efficacy (inhibition of thallium influx as a % of positive control): 100 ± 3%
[6]; [10]
  Maximum inhibition of cell viability: 50%
  IC50: 34 µM
[1]
  Selectivity Fold (hERG over KV1.3): 42 fold
  KV 1.3 Efficacy (inhibition of thallium influx as a % of positive control): 72 ± 16%

## COc1ccc(CCN(C)CCCC(C#N)(c2ccc(OC)c(OC)c2)C(C)C)cc1OC (stereo not drawn) [verapamil, reference compound]
[1]
  KV 1.3 Efficacy (inhibition of thallium influx as a % of positive control): 88 ± 12%

## tricresyl phosphate
hERG channel [2]
  qHTS (two runs) Efficacy (inhibition of thallium influx as a % of positive control): 82 ± 11%
hERG channel [3]; [11]
  IC50: 8.8 µM
hERG channel [4]
  Confirmation Efficacy (inhibition of thallium influx as a % of positive control): 68 ± 16%
[1]
  Selectivity Fold (hERG over KV1.3): 2.7 fold
  KV 1.3 Efficacy (inhibition of thallium influx as a % of positive control): 68 ± 17%

## trixylenyl phosphate
hERG channel [2]
  qHTS (two runs) Efficacy (inhibition of thallium influx as a % of positive control): 67 ± 12%
hERG channel [3]; [9]
  Patch clamp IC50: did not inhibit hERG channel activity
hERG channel [3]; [11]
  IC50: > 100 µM
hERG channel [4]
  Confirmation Efficacy (inhibition of thallium influx as a % of positive control): 43 ± 15%
